Several values for one entry are separate records, joined by “and”; a condition that tells them apart may be missing. Equal values may be shown once.
How the values were obtained:
rats = assay: Acute oral toxicity, sighting study in rats; format: in vivo, rat; details: for Toxic symptoms and mortality, sighting study: single oral doses 5, 50, 500, and 2000 mg/kg, observed 14 days
Method: (§1) In the series of thioenopyridine derivatives compounds BN-4, BN-14 and BN-16 show good antiinflammatory potential in all models tested. […] Acute Oral Toxicity Study was conducted following OECD guidelines by fixed dose method adopted by OECD (420). The study involved preliminary sighting using small number of animals in order to derive the dose effect relation for toxicity and mortality and to provide information on dose selection for the main study.
(§2) In the preliminary sighting study, the effect of various dosed administered to single animals of each sex was investigated in a sequential manner. The sighting study generally yields information on the dose-toxicity relationship including an estimate of the minimum lethal dose. In the main study, the test article is administered to groups of 5 males and 5 female animals at one of the fixed doses (5, 50, 500 and 2000 mg/Kg). The dose is derived from the sighting study. It is immediately below that which is expected to result in mortality. If evident toxicity is not seen at the chosen dose level, the substance should be retested at the next higher dose level. If at the initial dose level, animals die, or a severe toxicity reaction requires removal of animals from the study for animal welfare reasons, the substance is retested at the next lower dose level. Consideration of data from the both sighting study and the main study enabled a judgment to be made on determination of maximum tolerated dose.
Sighting Study: Animals were fasted overnight. Following period of fasting, the animals were weighed and were administered the test articles by oral route. After the test substance was administered food was withheld for further 3 to 4 hrs. In the sighting study, the effect of various doses was investigated in single animals of each sex. Dosing was sequential allowing at least 24 hrs before dosing the next animal. All animals were carefully observed for signs and symptoms of toxicity continuously up to 24 hrs and later up to 7 days. […] In this sighting study, the dose that produced evident toxicity but not death was identified. […]

Wistar rats [1] = assay: Arachidonic acid induced paw edema; format: in vivo, rat; details: one hour after Arachidonic acid
Method: Paw edema was produced in rats by Arachidonic acid following the method of Dimartino et al. (1987) and Laura segura et al., 1998. wistar rats weighing between 130-150 g were divided in to groups of six animals (n=6).A volume of 0.1 ml of 0.5% Arachidonic acid in 0.2M Carbonate buffer was injected in to the plantar side of the right hind paw of the rat. Paw volumes were measured using plethysmometer before and after one hour Arachidonic acid injection. Results obtained were compared with those obtained from the control group, which received vehicle only.

Wistar rats [2] = assay: Cotton pellet granuloma (sub acute model); format: in vivo, rat; details: BN compounds 100 mg/kg, Indomethacin 5 mg/kg, daily for 7 days
Method: Wistar rats weighing between 180-220 gms were anaesthetized with ether. The skin at their back was shaved and disinfected with 70% alcohol according to D'Arcy et al., 1960). An incision was made in the lumbar region. Using a blunt forceps subcutaneous tunnel was formed and a sterilized cotton pellet was placed on both sides in scapular region. Standard 20 mg cotton pellets was weighed and sterilized for the study. Rats were grouped into 5 groups of 6 animals each. […] On 8th day rats in all groups were sacrificed with anesthetic ether. Pellets were removed and kept overnight for incubation at 37° C. Then pellets were dried at 60° C. until they reach constant weight. The wet weight of pellets was also recorded after sacrificing. The average weights of pellets of control group and other treated groups were calculated. The percent change of granuloma weight was calculated for all the test groups comparing with control group.

IL-1β = IL-1β in paw tissue and serum, collagen induced arthritis; format: in vivo, rat; details: for Inhibition of IL-1β in paw tissues: collagen induced study, day 24, 100 mg/kg/day; for Reduction of IL-1β levels in serum: collagen study, vs arthritic control
Source text: It is believed that these proinflammatory cytokines help to propagate a local or systemic inflammatory process, and to induce biosynthesis and secretion of metalloproteinases (MMPs) and osteoclasts that critically contribute to degradation of extracellular matrix and erosion of bone respectively (Burger et al., 1998; Gravallese and Goldring, 2000; Smolen and Steiner, 2003).
On termination day blood samples were collected and serum was used for the estimation of Both TNF-α and IL-1β levels in FCA and Collagen induced studies. Both the parameters were determined using ELISA kits.

mice = assay: Acute oral toxicity, sighting study in mice; format: in vivo, mouse; details: 2000 mg/kg in mice
Method: as §1
as §2, with “Consideration of data from the both sighting study and the main study enabled a judgment to be made on determination of maximum tolerated dose.” left out

Row | Compound | Toxic symptoms and mortality, sighting study (rats) | % Inhibition (Wistar rats [1]; 50 mg/kg) | Percentage Swelling (50 mg/kg) (Wistar rats [1]; 50 mg/kg) | % Inhibition (Wistar rats [1]; 100 mg/kg) | Percentage Swelling (100 mg/kg) (Wistar rats [1]; 100 mg/kg) | % Inhibition (Wistar rats [1]; 200 mg/kg) | Percentage Swelling (200 mg/kg) (Wistar rats [1]; 200 mg/kg) | % Inhibition (granuloma dry weight) (Wistar rats [2]) | % Inhibition (granuloma wet weight) (Wistar rats [2]) | Granuloma Dry Weight (Wistar rats [2]) | Granuloma Wet Weight (Wistar rats [2]) | Inhibition of IL-1β in paw tissues (IL-1β) | Reduction of IL-1β levels in serum (IL-1β) | Toxicity, sighting study (mice) | Toxicity, sighting study (rats; doses 2000 and 1250 mg/kg in rats)
1 | Cc1sc2nc3c(c(N)c2c1C)CCCCC3 [BN-4, 2,3-dimethyl-6,7,8,9-tetrahydro-5H-cyclohepta[b]thieno[3,2-e]pyridin-4-amine] | do not show any toxic symptoms and mortality | 19.13 ± 2.01% | 55.32 ± 2.06 % | 29.94 ± 3.37% | 48.54 ± 2.2 % | 44.92% and 44.92 ± 3.10% | 37.50 ± 1.60 % | 28.42 ± 3.09 % | 22.23 ± 1.20 % | 83.33 ± 3.59 mg | 366.08 ± 3.50 mg | more significant inhibition (p<0.01) | more significantly (p<0.01) reduced | – | –
2 | Nc1c2c(nc3sc4c(c13)CCC4)CCCC2 [BN-14, 2,3,6,7,8,9-Hexahydro-1H-cyclopenta[4,5]thieno[2,3-b]quinolin-10-amine] | – | 24.21 ± 3.89% | 50.56 ± 3.12 % | 33.6 ± 3.11% | 45.64 ± 2.0 % | 41.37% and 41.37 ± 2.40% | 38.70 ± 1.60 % | 25.48 ± 1.89 % | 20.21 ± 0.58 % | 86.75 ± 2.20 mg | 374.42 ± 4.69 mg | more significant inhibition (p<0.01) | moderate inhibition (p<0.05) | toxic | toxic
3 | Nc1c2c(nc3sc4c(c13)CCC4)CCCCC2 [BN-16, 1,2,3,6,7,8,9,10-Octahydrocyclohepta[b]cyclopenta[4,5]thieno[3,2-e]pyridine-11-amine] | do not show any toxic symptoms and mortality | 21.72 ± 2.80% | 52.32 ± 2.37 % | 34.10 ± 2.82% | 44.95 ± 2.0 % | 45.63% and 45.63 ± 2.87% | 36.30 ± 1.80 % | 27.70 ± 1.82 % | 23.09 ± 1.59 % | 84.16 ± 2.11 mg | 365.08 ± 6.39 mg | moderate inhibition (p<0.05) | more significantly (p<0.01) reduced | – | –
4 | COc1ccc2c(c1)c(CC(=O)O)c(C)n2C(=O)c1ccc(Cl)cc1 [Indomethacin, reference compound] | – | – | – | – | – | – | – | 32.78 ± 1.88 % | 26.93 ± 2.24 % | 78.25 ± 2.19 mg | 338.01 ± 10.38 mg | moderate inhibition (p<0.05) | moderate inhibition (p<0.05) | – | –
